# Results from article PMC8081208, “Characterization of glutathione S-transferase enzymes in Dictyostelium discoideum suggests a functional role for the GSTA2 isozyme in cell proliferation and development” (PLoS ONE, 2021).
# Key:
# rDdGSTA2 = target: T1, rDdGSTA2 (Dictyostelium discoideum, UniProt Q556G3); experiment: CDNB conjugation, absorbance at […] nm, Michaelis-Menten fit; format: biochemical; conditions: saturating GSH; pH 7.5; 25°C
# T1 construct: gene gsta2-1
# T1 sequence (Q556G3 1-198): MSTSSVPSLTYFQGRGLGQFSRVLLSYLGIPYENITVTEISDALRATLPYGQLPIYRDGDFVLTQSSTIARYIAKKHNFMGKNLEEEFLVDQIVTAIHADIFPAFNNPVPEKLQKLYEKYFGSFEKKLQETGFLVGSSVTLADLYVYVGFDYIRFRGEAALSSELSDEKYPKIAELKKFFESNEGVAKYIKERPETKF
# rDdGSTA3 = target: T2, rDdGSTA3 (Dictyostelium discoideum, UniProt Q54VI4); experiment: as above; format: biochemical; conditions: saturating GSH; pH 7.5; 25°C
# T2 construct: gene gsta3
# T2 sequence (Q54VI4 1-204): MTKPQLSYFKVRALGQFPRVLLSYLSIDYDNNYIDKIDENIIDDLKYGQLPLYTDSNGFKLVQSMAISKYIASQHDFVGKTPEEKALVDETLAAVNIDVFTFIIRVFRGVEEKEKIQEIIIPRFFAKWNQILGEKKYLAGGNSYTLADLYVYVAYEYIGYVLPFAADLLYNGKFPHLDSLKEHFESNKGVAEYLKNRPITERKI
compound,measurement,setting,value
"O=[N+]([O-])c1ccc(Cl)c([N+](=O)[O-])c1 [CDNB, 1-chloro-2,4-dinitrobenzene]",Km,rDdGSTA2,1290 ± 200 µM
same,Km,rDdGSTA3,562 ± 98.1 µM
